# Assay results taken from patent publication US20150125915A1, “Method for Producing Lactic Acid” (Kao Corporation, priority 2012, published 2015).
# Test system: fungus of the genus Rhizopus
# Experiment: Evaluation of ability to produce lactic acid-4 (surfactant added to the lactic acid production medium)
# Format: cell-based
# Settings: for Production rate of lactic acid (relative value): mycelia prepared with 0.5% (w/v), non-supplemented = 100
# Method: Specifically, the mycelia of a fungus of the genus Rhizopus were prepared by the method of Production Example 2 using the surfactant and then grown by the method of Production Example 3. 6.0 g of the obtained wet fungus bodies of the genus Rhizopus was inoculated to 40 mL of an inorganic culture medium for lactic acid production evaluation (composition: 8.0% glucose, 0.1% ammonium sulfate, 0.06% potassium dihydrogen phosphate, 0.025% magnesium sulfate heptahydrate, 0.009% zinc sulfate heptahydrate, and 5.0% calcium carbonate; all the concentrations mean % (w/v)) applied to a 200-mL Erlenmeyer flask, and then cultured at 35° C. with stirring at 170 rpm. The supernatant of the culture medium was recovered every 2 hours from 30 minutes after the fungus body inoculation. Glucose and lactic acid were quantified by the procedures described later in Reference Example 1. A relative value of the production rate of lactic acid was determined on the basis of the calculation method described in Reference Example 2.
# Mycelia of a fungus of the genus Rhizopus were prepared in a medium containing 0.5% (w/v) (final concentration) of sorbitan monolaurate (Rheodol(R) SP-L10) by the same procedures as in Production Example 2 and then cultured by the same procedures as in Production Example 3. The fungus bodies were cultured by the sane procedures as in Test Example 2 and evaluated for its production rate of lactic acid. In this respect, the inorganic medium for lactic acid production evaluation was non-supplemented or supplemented with 0.1% (w/v), 0.2% (w/v), 0.5% (w/v), or 1% (w/v) (final concentration) of Rheodol(R) SP-L10. The amount of lactic acid was measured at 4 hours and 8.5 hours of the culture to calculate the production rate of lactic acid. The production rate of lactic acid was reduced in the medium supplemented with 0.1% (w/v) or higher of Rheodol(R) SP-L10 during lactic acid production.
# The concentration of lactic acid (unit: g of lactic acid/L of medium) in the supernatant sample of each culture medium was measured according to Reference Example 1 and divided by a time (unit: hr) required for change in lactic acid concentration to calculate the production rate of lactic acid per unit time (unit: g of lactic acid/L/hr). In addition, a relative value to the production rate of lactic acid under control conditions in each Production Example was determined.
substance,measurement,setting,value
Sorbitan monolaurate,Production rate of lactic acid (relative value),0.1% w/v added to lactic acid production medium,93 relative value
same,Production rate of lactic acid (relative value),0.2% w/v added to lactic acid production medium,67 relative value
same,Production rate of lactic acid (relative value),0.5% w/v added to lactic acid production medium,4 relative value
same,Production rate of lactic acid (relative value),1% w/v added to lactic acid production medium,0 relative value
same,Production rate of lactic acid (in words),medium supplemented with 0.1% (w/v) or higher during lactic acid production,reduced
